The structures appear in SMILES notation.

The term melting point denotes the temperature of the solid-liquid transition.

For one data set, the system named is PDE4. In words: Inhibition of PDE4 activity (method of Bauer and Schwabe, microtiter plates). As to conditions: inhibitory concentration as −log IC50 (mol/l). Type of data set: biochemical. As to the method:
The activity test was carried out according to the method of Bauer and Schwabe, which was adapted to microtiter plates (Naunyn-Schmiedeberg's Arch. Pharmacol. 1980, 311, 193-198). The PDE reaction takes place in the first step here. In a second step, the resulting 5′-nucleotide is cleaved by a 5′-nucloetidase of the snake venom of Crotalus atrox to the uncharged nucleoside. In the third step, the nucleoside is separated from the remaining charged substrate on ion-exchange columns. The columns are eluted directly into minivials, into which 2 ml of scintillator fluid are additionally added, for counting using 2 ml of 30 mM ammonium formate (pH 6.0).
The inhibitory values determined for the compounds according to the invention [inhibitory concentration as −log IC50 (mol/l/)] follow from the following Table A, in which the numbers of the compounds correspond to the numbers of the examples.
Regarding `COc1cc2c(cc1OC)[C@@H]1CCCC[C@@H]1N=C2c1ccc2ccccc2c1` [Compound 5, (−)-cis-8,9-Dimethoxy-6-naphthalen-2-yl-1,2,3,4,4a,10b-hexahydrophenanthridine], the “−log IC50” value worked out at 7.63. Still for that read-out and setting: the value for `COc1cc2c(cc1OC)[C@@H]1CCCC[C@@H]1N=C2c1ccc2c(c1)S(=O)(=O)c1ccccc1C2=O` [Compound 6, (−)-cis-8,9-Dimethoxy-6-(10,10-dioxothioxanthen-9-on-3-yl)-1,2,3,4,4a,10b-hexahydro-phenanthridine] was 8.39. Consider `COc1cc2c(cc1OC)[C@@H]1CCCC[C@@H]1N=C2c1ccc2ncccc2c1` [Compound 2, (−)-cis-8,9-Dimethoxy-6-quinolin-6-yl-1,2,3,4,4a,10b-hexahydrophenanthridine], for which the “−log IC50” value was found to be 7.23. For the compound `COc1cc2c(cc1OC)[C@@H]1CCCC[C@@H]1N=C2c1ccc2c(c1)OCO2` [Compound 1, (−)-cis-6-Benzo[1,3]dioxol-5-yl-8,9-dimethoxy-1,2,3,4,4a,10b-hexahydrophenanthridine], the “−log IC50” value came out at 7.28. Consider `COc1cc2c(cc1OC)[C@@H]1CCCC[C@@H]1N=C2c1ccc2c(c1)OCCO2` [Compound 3, (−)-cis-8,9-Dimethoxy-6-(2,3-dihydrobenzo[1,4]dioxin-6-yl)-1,2,3,4,4a,10b-hexahydrophenanthridine], for which the “−log IC50” value was found to be 7.21. Same read-out and setting: the value for `COc1cc2c(cc1OC)[C@@H]1CCCC[C@@H]1N=C2c1ccc2c(c1)C(=O)c1ccccc1-2.Cl` [Compound 7, (+)-cis-8,9-Dimethoxy-6-(fluoren-9-on-2-yl)-1,2,3,4,4a,10b-hexahydrophenanthridine hydrochloride] was 7.85; that for `COc1cc2c(cc1OC)[C@@H]1CCCC[C@@H]1N=C2c1ccc(OC(F)F)c2oc(C(C)C)cc12` [Compound 11, (−)-cis-6-[7-Difluoromethoxy-2-isopropylbenzofuran-4-yl]-8,9-dimethoxy-1,2,3,4,4a,10b-hexahydrophenanthridine] was 8.00. `COc1cc2c(cc1OC)[C@@H]1CCCC[C@@H]1N=C2c1ccc2nc(C)[nH]c2c1` [Compound 10, (−)-cis-8,9-Dimethoxy-6-(2-methyl-3H-benzimidazol-5-yl)-1,2,3,4,4a,10b-hexahydrophenanthridine]: the “−log IC50” value is given as 6.83. Consider `COc1cc2c(cc1OC)[C@@H]1CCCC[C@@H]1N=C2c1ccc2c(c1)C(=O)c1ccccc1C2=O` [Compound 8, (−)-cis-8,9-Dimethoxy-6-(anthraquinon-2-yl)-1,2,3,4,4a,10b-hexahydrophenanthridine], for which the “−log IC50” value is on record as 8.00. On the same count and under the same terms, the value for `COc1cc2c(cc1OC)[C@@H]1CCCC[C@@H]1N=C2c1ccc2[nH]nnc2c1` [Compound 4, (−)-cis-6-(1H-Benzotriazol-5-yl)-8,9-dimethoxy-1,2,3,4,4a,10b-hexahydrophenanthridine] was 7.47; that for `COc1cc2c(cc1OC)[C@@H]1CCCC[C@@H]1N=C2c1ccc2[nH]cnc2c1` [Compound 9, (−)-cis-6-(1H-Benzimidazol-5-yl)-8,9-dimethoxy-1,2,3,4,4a,10b-hexahydrophenanthridine] was 6.76.

System in a further data set: not given
Experiment: not given
Settings: not given
Compound `COc1cc2c(cc1OC)[C@@H]1CCCC[C@@H]1N=C2c1ccc2c(c1)C(=O)c1ccccc1C2=O` [Compound 8, (−)-cis-8,9-Dimethoxy-6-(anthraquinon-2-yl)-1,2,3,4,4a,10b-hexahydrophenanthridine] registered a melting point of 213 to 214.5 °C. `COc1cc2c(cc1OC)[C@@H]1CCCC[C@@H]1N=C2c1ccc2[nH]nnc2c1` [Compound 4, (−)-cis-6-(1H-Benzotriazol-5-yl)-8,9-dimethoxy-1,2,3,4,4a,10b-hexahydrophenanthridine] showed a melting point of 213 to 214 °C.

Source of the values: patent US6479505B1, “6-arylphenanthridines with PDE-IV inhibiting activity” (Altana Pharma AG, priority 1999, dated 2002).
